Data reported in US7056947B2, “Aza-peptide epoxides” (Georgia Tech Research Corp., priority 2002, dated 2006).

Experiments:
Assay type in all cases: biochemical
[1] = tested on: calpain; test: Inhibition of calpain; settings: second-order rate constant; NI = no inhibition
[2] = target: T1, papain (Carica papaya, UniProt P00784); test: Inhibition of papain, incubation method; settings: second-order rate constant, NI = no inhibition; for kinact/KI: pH 7.5, read-out: kobs/[I] papain
T1 sequence (P00784 134-345): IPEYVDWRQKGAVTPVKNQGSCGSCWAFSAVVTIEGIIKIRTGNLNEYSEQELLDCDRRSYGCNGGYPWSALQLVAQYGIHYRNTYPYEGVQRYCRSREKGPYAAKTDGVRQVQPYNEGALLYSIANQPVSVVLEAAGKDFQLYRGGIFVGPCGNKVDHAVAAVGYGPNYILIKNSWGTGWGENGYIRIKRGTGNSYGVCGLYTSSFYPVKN
Protocol: (§1) The release of 7-amino-4-methylcoumarin was monitored (λex=360 nm, λem=465 nm) using a Tecan Spectra Fluor microplate reader. Pseudo first-order inactivation rate constants were obtained from plots of In vt/vo versus time.
The incubation method was also used for papain. The inhibition incubation buffer for papain was 50 mM Hepes buffer at pH 7.5, containing 2.5 mM DTT and 2.5 mM EDTA. The assay used the substrate Z-Phe-Arg-pNA (53.7 μM) in the same buffer. The approximate concentration of papain added to the incubation buffer was 0.29 mg/mL. The release of p-nitroanilide was monitored at 405 nm with a Molecular Devices Thermomax microplate reader.

[3] = target: cathepsin B (Homo sapiens, UniProt P07858); test: Inhibition of cathepsin B, incubation method; settings: second-order rate constant, NI = no inhibition; for kinact/KI: pH 6, read-out: kobs/[I] cathepsin B
Text: as §1

[4] = target: T2, caspase-1 (Homo sapiens, UniProt P29466, D381E); test: Caspase-1 progress curve assay; settings: D381E variant, substrate Ac-YVAD-AMC, 30° C.
T2 construct: His tag (N); made in house; host or cells: E. coli
T2 sequence (P29466 120-297 limits assumed): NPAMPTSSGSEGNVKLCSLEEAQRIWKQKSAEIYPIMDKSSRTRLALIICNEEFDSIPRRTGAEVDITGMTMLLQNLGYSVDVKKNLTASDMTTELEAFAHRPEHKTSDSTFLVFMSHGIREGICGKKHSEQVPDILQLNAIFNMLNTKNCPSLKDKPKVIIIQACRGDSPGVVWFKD
T2 sequence (P29466 317-404 D381E limits assumed): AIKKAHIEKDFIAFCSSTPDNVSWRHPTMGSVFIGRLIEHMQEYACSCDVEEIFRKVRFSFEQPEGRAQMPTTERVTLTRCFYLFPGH
Outline: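 Autolysis-resistant D381E caspase-1 (E. coli, N-His tag), about 2 nM, added with 15 μM Ac-YVAD-AMC in HEPES/glycerol/EDTA buffer with 5 mM DTT to prewarmed compound at 30 °C. AMC fluorescence followed 900 s, triplicate curves fit to irreversible inactivation; kon (M^−1s^−1) from regression slope.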

[5] = target: T3, caspase-6 (Homo sapiens, UniProt P55212); test: Caspase-6 progress curve assay; settings: Table V, substrate Z-DEVD-AFC
T3 construct: made in house; host or cells: E. coli
T3 sequence (P55212 24-179 limits assumed): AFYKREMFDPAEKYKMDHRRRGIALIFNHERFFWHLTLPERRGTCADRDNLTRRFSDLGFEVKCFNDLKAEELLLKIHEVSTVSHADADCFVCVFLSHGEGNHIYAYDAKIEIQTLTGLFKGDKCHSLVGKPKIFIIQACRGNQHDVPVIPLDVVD
T3 sequence (P55212 194-293 limits assumed): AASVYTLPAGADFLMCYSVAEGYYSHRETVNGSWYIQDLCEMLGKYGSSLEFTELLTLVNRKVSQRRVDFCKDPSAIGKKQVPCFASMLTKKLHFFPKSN
Protocol: Caspase-3, -6, and -8. Caspase-3, -6 and -8 were expressed in E. coli and purified according to methods previously described by Stennicke and Salvesen. Assays using the fluorogenic substrate Z-DEVD-AFC (λex=400 nm, λem=505 nm) were carried out on a Molecular Devices fMax fluorescence microplate reader. Inhibition rates and equilibria were determined by the progress curve method. The standard 100 μL reaction was started by adding enzyme to a mixture of substrate (final concentration of Z-DEVD-AFC 100 μM) and various amounts of inhibitor in buffer (50 mM Hepes, 100 mM NaCl, 0.1% (w/v) CHAPS, sucrose 10% (w/v), and 10 mM DTT, at pH 7.4). The caspases were pre-activated for 10 min at 37° C. in the presence of 10 mM DTT.

[6] = target: T4, caspase-3 (Homo sapiens, UniProt P42574); test: Caspase-3 progress curve assay; settings: substrate Z-DEVD-AFC; NI = no inhibition
T4 construct: made in house; host or cells: E. coli
T4 sequence (P42574 29-175 limits assumed): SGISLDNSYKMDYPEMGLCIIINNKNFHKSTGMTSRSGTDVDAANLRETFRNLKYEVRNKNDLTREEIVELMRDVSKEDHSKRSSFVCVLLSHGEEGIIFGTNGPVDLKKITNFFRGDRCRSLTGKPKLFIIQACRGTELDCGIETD
T4 sequence (P42574 176-277 limits assumed): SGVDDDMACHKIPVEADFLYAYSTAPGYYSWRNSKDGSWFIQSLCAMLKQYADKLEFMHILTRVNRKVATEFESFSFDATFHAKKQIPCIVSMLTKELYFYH
Outline: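 E. coli-expressed caspases, pre-activated 10 min at 37° C with 10 mM DTT, were added to 100 μM Z-DEVD-AFC plus inhibitor in 50 mM Hepes, 100 mM NaCl, 0.1% CHAPS, 10% sucrose, 10 mM DTT, pH 7.4. AFC fluorescence (ex 400/em 505 nm) was followed; inhibition rates and equilibria came from progress curves.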

[7] = target: dipeptidyl peptidase I (DPPI, cathepsin C) (Homo sapiens, UniProt P53634); test: Inhibition of DPPI
dipeptidyl peptidase I (DPPI, cathepsin C), sequence (P53634 25-463, species assumed): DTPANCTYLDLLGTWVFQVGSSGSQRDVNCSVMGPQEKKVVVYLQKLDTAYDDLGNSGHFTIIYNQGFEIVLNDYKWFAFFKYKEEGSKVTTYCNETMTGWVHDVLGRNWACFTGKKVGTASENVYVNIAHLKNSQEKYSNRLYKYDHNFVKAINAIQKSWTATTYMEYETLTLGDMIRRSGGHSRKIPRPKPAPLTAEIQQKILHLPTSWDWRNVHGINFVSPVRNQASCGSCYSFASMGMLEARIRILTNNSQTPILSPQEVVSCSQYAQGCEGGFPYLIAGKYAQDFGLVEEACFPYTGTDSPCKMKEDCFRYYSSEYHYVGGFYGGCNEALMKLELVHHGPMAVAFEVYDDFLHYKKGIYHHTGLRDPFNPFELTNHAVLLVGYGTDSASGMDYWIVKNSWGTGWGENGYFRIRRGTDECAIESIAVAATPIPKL

Row | SMILES | kobs/[I] calpain [1] | k2 caspase-6 [5] | k2 caspase-3 [6] | also measured
1 | CCOC(=O)[C@@H]1O[C@H]1C(=O)N(CC(C)C)NC(=O)[C@H](CC(C)C)NC(=O)OCc1ccccc1 (relative stereo) [Cbz-Leu-ALeu-trans-EP-COOEt, trans-3-(N^2-(N-Benzyloxycarbonyleucyl)-N^1-isobutylhydrazinocarbonyl)oxirane-2-carboxylic Acid Ethyl Ester] | 3.09 M⁻¹ s⁻¹ | – | – | kobs/[I] papain [2]: 6.37 M⁻¹ s⁻¹; kobs/[I] cathepsin B [3]: 23.32 M⁻¹ s⁻¹
2 | CC(C)[C@H](NC(=O)CCc1ccccc1)C(=O)N[C@@H](C)C(=O)NN(CC(=O)O)C(=O)[C@H]1O[C@@H]1C(=O)N(Cc1ccccc1)Cc1ccccc1 [10-127, (2S,3S)-2-(Dibenzylcarbamoyl)-3-(N^2-(3-phenylpropanoylvalylalanyl)-N^1-carboxymethylhydrazinocarbonyl)oxirane] | – | 145 ± 1 M⁻¹ s⁻¹ | 830 ± 40 M⁻¹ s⁻¹ | k2 caspase-1 [4]: 101140 ± 9547 M⁻¹ s⁻¹
3 | CCCCN(CCCC)C(=O)[C@H]1O[C@@H]1C(=O)N(CC(=O)O)NC(=O)[C@H](C)NC(=O)[C@@H](NC(=O)CCc1ccccc1)C(C)C [10-129, (2S,3S)-2-(Dibutylcarbamoyl)-3-(N^2-(3-phenylpropanoylvalylalanyl)-N^1-carboxymethylhydrazinocarbonyl)oxirane] | – | 53 ± 9 M⁻¹ s⁻¹ | 520 ± 10 M⁻¹ s⁻¹ | k2 caspase-1 [4]: 26150 ± 5460 M⁻¹ s⁻¹
4 | CC(C)C[C@H](NC(=O)OCc1ccccc1)C(=O)N[C@@H](CCC(=O)O)C(=O)N[C@H](C(=O)NN(CC(=O)O)C(=O)[C@H]1O[C@@H]1C(=O)N(Cc1ccccc1)Cc1ccccc1)[C@@H](C)O [11-4, (2S,3S)-2-(Dibenzylcarbamoyl)-3-(N^2-(N-benzyloxycarbonylleucylglutamylthreonyl)-N^1-carboxymethylhydrazinocarbonyl)oxirane] | – | 13840 ± 270 M⁻¹ s⁻¹ | 2750 ± 205 M⁻¹ s⁻¹ | –
5 | CC[C@H](C)[C@H](NC(=O)OCc1ccccc1)C(=O)N[C@@H](CCC(=O)O)C(=O)N[C@H](C(=O)NN(CC(=O)O)C(=O)[C@H]1O[C@@H]1C(=O)N(Cc1ccccc1)Cc1ccccc1)[C@@H](C)O [11-11, (2S,3S)-2-(Dibenzylcarbamoyl)-3-(N^2-(N-benzyloxycarbonylisoleucylglutamylthreonyl)-N^1-carboxymethylhydrazinocarbonyl)oxirane] | – | 32000 ± 1680 M⁻¹ s⁻¹ | 3550 M⁻¹ s⁻¹ | –
6 | CC(C)C[C@H](NC(=O)OCc1ccccc1)C(=O)N[C@@H](CCC(=O)O)C(=O)N[C@H](C(=O)NN(CC(=O)O)C(=O)[C@H]1O[C@@H]1C(=O)N(C)Cc1ccccc1)[C@@H](C)O [11-16, (2S,3S)-2-(N-Methyl-N-benzylcarbamoyl)-3-(N^2-(N-benzyloxycarbonylleucylglutamylthreonyl)-N^1-carboxymethylhydrazinocarbonyl)oxirane] | – | 9680 ± 875 M⁻¹ s⁻¹ | 2640 ± 100 M⁻¹ s⁻¹ | –
7 | CC(C)[C@H](NC(=O)CCc1ccccc1)C(=O)N[C@@H](C)C(=O)NN(CC(=O)O)C(=O)[C@H]1O[C@@H]1C(=O)N(C)Cc1ccccc1 [11-17, (2S,3S)-2-(N-Methyl-N-benzylcarbamoyl)-3-(N^2-(3-phenylpropanoylvalylalanyl)-N^1-carboxymethylhydrazinocarbonyl)oxirane] | – | 136 M⁻¹ s⁻¹ | 1950 ± 150 M⁻¹ s⁻¹ | –
8 | CC[C@H](C)[C@H](NC(=O)OCc1ccccc1)C(=O)N[C@@H](CCC(=O)O)C(=O)N[C@H](C(=O)NN(CC(=O)O)C(=O)[C@H]1O[C@@H]1C(=O)N(C)Cc1ccccc1)[C@@H](C)O [11-18, (2S,3S)-2-(N-Methyl-N-benzylcarbamoyl)-3-(N^2-(N-benzyloxycarbonylisoleucylglutamylthreonyl)-N^1-carboxymethylhydrazinocarbonyl)oxirane] | – | 47730 ± 420 M⁻¹ s⁻¹ | 4780 M⁻¹ s⁻¹ | –
9 | CCOC(=O)C1OC1C(=O)N(CCc1ccccc1)NC(C)=O (stereo not drawn) [Ac-AHph-trans-EP-COOEt, trans-3-(N^2-(N-Acetyl)-N^1-phenylethylhydrazinocarbonyl)oxirane-2-carboxylic Acid Ethyl Ester] | 1.29 M⁻¹ s⁻¹ | – | – | kobs/[I] papain [2]: 26.88 M⁻¹ s⁻¹; kobs/[I] cathepsin B [3]: 40.62 M⁻¹ s⁻¹
10 | CCOC(=O)[C@H]1O[C@@H]1C(=O)N(CCc1ccccc1)NC(=O)C(CC(C)C)NC(=O)OCc1ccccc1 (stereo partly drawn) [Cbz-Leu-AHph-(2S, 3S)-EP-COOEt, (2S,3S)-3-(N^2-(N-Benzyloxycarbonyleucyl)-N^1-phenylethylhydrazinocarbonyl)oxirane-2-carboxylic Acid Ethyl Ester] | 2.28 M⁻¹ s⁻¹ | – | – | kobs/[I] papain [2]: 5.68 M⁻¹ s⁻¹; kobs/[I] cathepsin B [3]: 0.67 M⁻¹ s⁻¹
11 | CCOC(=O)[C@H]1O[C@@H]1C(=O)N(CC(C)C)NC(=O)C(CC(C)C)NC(=O)OCc1ccccc1 (stereo partly drawn) [Cbz-Leu-ALeu-(2S, 3S)-EP-COOEt, (2S,3S)-3-(N^2-(N-Benzyloxycarbonyleucyl)-N^1-isobutylhydrazinocarbonyl)oxirane-2-carboxylic Acid Ethyl Ester] | 8.58 M⁻¹ s⁻¹ | – | – | kobs/[I] papain [2]: 10.53 M⁻¹ s⁻¹; kobs/[I] cathepsin B [3]: 1.8 M⁻¹ s⁻¹
12 | CCOC(=O)[C@H]1O[C@@H]1C(=O)N(CC(C)C)NC(=O)[C@H](CC(C)C)NC(=O)[C@H](CC(C)C)NC(=O)OCc1ccccc1 [Cbz-Leu-Leu-ALeu-(2S, 3S)-EP-COOEt, (2S,3S)-3-(N^2-(N-Benzyloxycarbonylleucylleucyl)-N^1-isobutylhydrazinocarbonyl)oxirane-2-carboxylic Acid Ethyl Ester] | 2.48 M⁻¹ s⁻¹ | – | – | kinact/KI [2]: 10.5 M⁻¹ s⁻¹; kinact/KI [3]: 0.98 M⁻¹ s⁻¹
13 | CC(C)C[C@H](NC(=O)OCc1ccccc1)C(=O)N[C@@H](CC(C)C)C(=O)NN(CC(C)C)C(=O)[C@H]1O[C@@H]1C(=O)O [Cbz-Leu-Leu-ALeu-(2S, 3S)-EP-COOH, (2S,3S)-3-(N^2-(N-Benzyloxycarbonylleucylleucyl)-N^1-isobutylhydrazinocarbonyl)oxirane-2-carboxylic Acid] | 0.82 M⁻¹ s⁻¹ | – | – | kinact/KI [2]: 6.93 M⁻¹ s⁻¹; kinact/KI [3]: 7.02 M⁻¹ s⁻¹
14 | CCCCC(N)C(=O)NN(CCc1ccccc1)C(=O)C1OC1C(=O)OCC.O=C(O)C(F)(F)F (stereo not drawn) [Nle-AHph-trans-EP-COOEt.TFA, trans-3-(N^2-Norleucyl)-N^1-phenylethylhydrazinocarbonyl)oxirane-2-carboxylic Acid Ethyl Ester Trifluoroacetate Salt] | – | – | – | kobs/[I] DPPI [7]: 8.2 M⁻¹ s⁻¹
15 | CCCC(N)C(=O)NN(CCc1ccccc1)C(=O)C1OC1C(=O)OCC.O=C(O)C(F)(F)F (stereo not drawn) [Nva-AHph-trans-EP-COOEt.TFA] | – | – | – | kobs/[I] DPPI [7]: 3.2 M⁻¹ s⁻¹
